Source: article PMC8510601, “Discovery of benzamide-hydroxypyridinone hybrids as potent multi-targeting agents for the treatment of Alzheimer's disease” (Journal of Enzyme Inhibition and Medicinal Chemistry, 2021)
Structures can show the parent of a compound that is named as a salt. Where two headings read alike, the source gives them in different places.

How the values were obtained:
[1] = molecular target: T1, MAO-B (Homo sapiens, UniProt P27338); assay: Human MAO-B inhibition assay; format: biochemical; settings: for inhibition at 0.1 µM: read-out: Inhibitory rate ± SEM (%, 100 nM); for inhibition at 1 µM: read-out: Inhibitory rate ± SEM (%, 1 μM); for IC50: ± SEM, read-out: IC50 against MAO-B
T1 sequence (P27338 1-520): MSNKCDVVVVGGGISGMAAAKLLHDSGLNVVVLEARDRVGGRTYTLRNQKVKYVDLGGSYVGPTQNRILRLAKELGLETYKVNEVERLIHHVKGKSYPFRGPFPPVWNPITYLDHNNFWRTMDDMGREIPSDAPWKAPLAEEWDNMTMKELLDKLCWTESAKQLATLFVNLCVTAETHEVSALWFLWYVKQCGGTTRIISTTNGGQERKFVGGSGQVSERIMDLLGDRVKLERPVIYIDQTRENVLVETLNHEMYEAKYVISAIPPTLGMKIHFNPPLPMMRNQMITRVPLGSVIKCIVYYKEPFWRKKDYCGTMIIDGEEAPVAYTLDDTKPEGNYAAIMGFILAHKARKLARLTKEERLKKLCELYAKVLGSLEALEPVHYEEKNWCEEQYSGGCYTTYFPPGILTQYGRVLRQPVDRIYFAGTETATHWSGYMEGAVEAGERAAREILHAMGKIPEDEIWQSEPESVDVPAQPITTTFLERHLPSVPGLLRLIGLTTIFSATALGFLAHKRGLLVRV

[2] = molecular target: T2, MAO-A (Homo sapiens, UniProt P21397); assay: Human MAO-A inhibitory assay; format: biochemical; settings: read-out: IC50 ± SEM MAO-A
T2 sequence (P21397 1-527): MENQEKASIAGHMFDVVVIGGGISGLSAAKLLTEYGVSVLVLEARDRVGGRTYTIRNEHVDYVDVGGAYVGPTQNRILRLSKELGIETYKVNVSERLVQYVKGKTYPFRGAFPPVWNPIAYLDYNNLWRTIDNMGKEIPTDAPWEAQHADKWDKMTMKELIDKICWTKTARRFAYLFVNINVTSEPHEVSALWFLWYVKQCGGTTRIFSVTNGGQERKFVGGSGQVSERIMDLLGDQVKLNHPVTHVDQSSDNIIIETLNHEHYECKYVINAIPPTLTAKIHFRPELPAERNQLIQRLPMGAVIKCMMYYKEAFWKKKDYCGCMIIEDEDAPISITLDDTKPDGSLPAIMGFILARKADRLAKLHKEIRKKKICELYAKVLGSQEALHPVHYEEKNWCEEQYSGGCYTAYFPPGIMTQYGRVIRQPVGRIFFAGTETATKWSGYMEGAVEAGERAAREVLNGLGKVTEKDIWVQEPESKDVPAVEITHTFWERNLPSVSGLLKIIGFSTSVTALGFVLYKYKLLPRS

[3] = test system: PC12 cells; assay: Intracellular ROS detection (DCFH-DA), Aβ1–42-induced; format: cell-based; settings: 8g and Aβ1–42 10 μM, flow cytometry
Protocol: Aβ deposition and peroxidation are also important clinical features of AD. Therefore, we subsequently assessed the antioxidation of compound 8g, using 2′,7′-dichlorofluorescin diacetate (DCFH-DA) to detect intracellular ROS generation on the PC12 cell line derived from neural pheochromocytoma. Based on our previous research, the concentration of 10 μM of compound 8g was chosen in this test. […]
8. Intracellular ROS detection

[4] = PAMPA-BBB assay; settings: for Prediction of CNS penetrability: from Pe in PAMPA-BBB
[5] = pKa determination by spectrophotometric titration; settings: pH range 2.0–10.5, 25 °C
[6] = test system: scopolamine-induced cognitive dysfunction ICR mice; assay: Morris water maze test, scopolamine-induced cognitive dysfunction; settings: MWM last day, test agent 15 mg/kg i.p. + scopolamine 15 mg/kg i.p., 15 days, n = 8, mean ± SEM
Protocol: The MWM test was performed at the last 5 days including two days of memory and learning training, three days of cognitive assessment. On the fifth day, a probe training trial was performed and analysed. […] However, the dosage of scopolamine was increased from 5 mg/kg to 15 mg/kg to achieve a better modelling effect.
Cognitive and memory assays in vivo
The adult female ICR mice (8-10 weeks old, weight 20-25 g) were obtained from the
Zhejiang Academy of Medical Sciences (Hangzhou, China).
agents were prepared as clear injections, consisting of 10% DMSO, 20%
(2-hydroxypropyl)-β-cyclodextrin and PBS. The mice were trained to find the platform (10 cm
diameter) in the opaque circular pool (120 cm diameter, 60 cm height) filled with water (40 cm,
depth), which was described in detail in our previous study.[1] All mice received at least one
training session daily in four quadrants for four consecutive days before testing of finding the
The mice were randomly divided into four groups: (i) control group (PBS of 20%
were intraperitoneally injected with indicated compounds or solvent 30 min before intraperitoneal
injection with scopolamine or PBS once a day for 15 consecutive days. The Morris water maze
test was performed at the last 5 days.

[7] = Iron-chelating activity test: affinity constants for Fe3+ and pFe3+
[8] = DFP^d: KCl (0.1 M); cited from earlier work
[9] = DFP^d: KCl (0.1 M); cited from earlier work; remark: listed apart in the source
[10] = in vitro; settings: PAMPA
[11] = literature value, cited from earlier work
[12] = 0.1 M KCl aqueous solution, KCl (0.1 M)
[13] = 0.1 M KCl aqueous solution, pKa2, KCl (0.1 M)
[14] = pH 7.4, [Fe3+]total = 10^−6 M, [ligand]total = 10^−5 M, calculated from pKa and log β measured in KCl/DMSO

Question: Which inhibition at 0.1 µM ([1]; 100 nM) does the source give for `Cc1c(O)c(=O)ccn1CCNC(=O)c1ccc(OCc2ccccc2)cc1` [Compound 8g] here?
Answer: > 50%

Question: What about the inhibition at 1 µM ([1]; 1 μM) of the same compound?
Answer: 78.29 ± 0.16%

Question: What about the “SI (selectivity index) = IC50 (MAO-A)/IC50 (MAO-B)” value ([1]; selectivity for the MAO-B isoform) of the same compound?
Answer: 213

Question: What about the IC50 [1] of the same compound?
Answer: 0.0684 ± 0.00605 µM

Question: What about the IC50 [2] of the same compound?
Answer: 14.6 ± 0.231 µM

Question: And the “ROS %Gated (percentage of positive cells in the total number of cells)” value [3]?
Answer: 33.32%

Question: What about the “ROS Mean (average fluorescence intensity of all cells)” value [3] of the same compound?
Answer: 106.35

Question: And the melting point?
Answer: 246 to 248 °C

Question: And the Papp at 6 h, 25 μg/mL ([4]; PAMPA)?
Answer: 4.07 ± 0.44 ×10⁻⁶ cm/s

Question: And the “Prediction of CNS penetrability” value [4]?
Answer: CNS + (CNS +: Pe (10^–6 cm/s) > 4.0, high BBB permeability)

Question: And the “Pe ± SEM” value ([4]; porcine brain lipid, 6 h at 25 °C, eight independent experiments)?
Answer: > 4.0 10^–6 cm/s

Question: What about the pKa [5, 12] of the same compound?
Answer: 3.38

Question: And the pKa [5, 13]?
Answer: 9.69

Question: And the “Distance to the target” value [6]?
Answer: 2.64 ± 0.52 m

Question: And the “Entries to the target” value [6]?
Answer: 4.12 ± 0.40

Question: And the “Log β2” value ([7]; KCl (0.1 M): DMSO = 3:2 (v/v))?
Answer: 26.04

Question: What about the “Log β3” value ([7]; KCl (0.1 M): DMSO = 3:2 (v/v)) of the same compound?
Answer: 35.65

Question: What about the “Log β1” value ([7]; KCl (0.1 M): DMSO = 9:1 (v/v)) of the same compound?
Answer: 14.60

Question: What about the “pFe^3+” value [7, 14] of the same compound?
Answer: 19.31

Question: For `Cc1c(O)c(=O)ccn1CCNC(=O)c1ccccn1` [Compound 11a], which inhibition at 0.1 µM ([1]; 100 nM) is on record?
Answer: 34 ± 5.19%

Question: What about the inhibition at 1 µM ([1]; 1 μM) of the same compound?
Answer: 61.48 ± 0.58%

Question: What about the melting point of the same compound?
Answer: 219 to 221 °C

Question: What about the pKa [5, 12] of the same compound?
Answer: 3.35

Question: And the pKa [5, 13]?
Answer: 9.86

Question: What about the “Log β2” value ([7]; KCl (0.1 M): DMSO = 3:2 (v/v)) of the same compound?
Answer: 25.92

Question: And the “Log β3” value ([7]; KCl (0.1 M): DMSO = 3:2 (v/v))?
Answer: 35.10

Question: And the “Log β1” value ([7]; KCl (0.1 M): DMSO = 9:1 (v/v))?
Answer: 14.52

Question: What about the “pFe^3+” value [7, 14] of the same compound?
Answer: 18.27

Question: Which inhibition at 0.1 µM ([1]; 100 nM) does the source give for `Cc1c(O)c(=O)ccn1CCNC(=O)c1cccnc1` [Compound 11b] here?
Answer: 34.1 ± 1.58%

Question: And the inhibition at 1 µM ([1]; 1 μM)?
Answer: 60.8 ± 1.99%

Question: What about the IC50 [1] of the same compound?
Answer: 0.248 ± 0.00956 µM

Question: What about the melting point of the same compound?
Answer: 266 to 268 °C

Question: And the pKa [5, 12]?
Answer: 3.09

Question: What about the pKa [5, 13] of the same compound?
Answer: 9.79

Question: And the “Log β2” value ([7]; KCl (0.1 M): DMSO = 3:2 (v/v))?
Answer: 25.68

Question: And the “Log β3” value ([7]; KCl (0.1 M): DMSO = 3:2 (v/v))?
Answer: 34.75

Question: And the “Log β1” value ([7]; KCl (0.1 M): DMSO = 9:1 (v/v))?
Answer: 14.40

Question: What about the “pFe^3+” value [7, 14] of the same compound?
Answer: 18.13

Question: Which results are given for `Cc1c(O)c(=O)ccn1CCNC(=O)c1ccncc1` [Compound 11c]?
Answer: inhibition at 0.1 µM ([1]; 100 nM): 29.1 ± 2.14%; inhibition at 1 µM ([1]; 1 μM): 69.7 ± 2.38%; melting point: 280 to 282 °C; pKa [5, 12]: 3.15; pKa [5, 13]: 9.81; Log β2 ([7]; KCl (0.1 M): DMSO = 3:2 (v/v)): 26.21; Log β3 ([7]; KCl (0.1 M): DMSO = 3:2 (v/v)): 35.58; Log β1 ([7]; KCl (0.1 M): DMSO = 9:1 (v/v)): 14.74; pFe^3+ [7, 14]: 18.89

Question: Which “Log β1” value [8] does the source give for `Cc1c(O)c(=O)ccn1C` [DFP, Deferiprone, reference compound] here?
Answer: 15.03

Question: What about the “Log β2” value [8] of the same compound?
Answer: 27.42

Question: And the “Log β3” value [8]?
Answer: 37.35

Question: And the “pFe^3+” value [8]?
Answer: 20.74

Question: What about the pKa1 [9] of the same compound?
Answer: 3.61

Question: And the pKa2 [9]?
Answer: 9.78

Question: And the pKa ([5]; KCl (0.1 M))?
Answer: 3.64

Question: And the pKa2 ([5]; KCl (0.1 M))?
Answer: 9.79

Question: And the “pFe^3+” value ([7]; DFP^a: from constants measured in KCl (0.1 M))?
Answer: 20.12

Question: And the “Log β1” value ([7]; DFP^a: measured in KCl (0.1 M))?
Answer: 14.86

Question: And the “Log β2” value ([7]; DFP^a: measured in KCl (0.1 M))?
Answer: 27.13

Question: And the “Log β3” value ([7]; DFP^a: measured in KCl (0.1 M))?
Answer: 36.76

Question: And the “Log β2” value ([7]; KCl (0.1 M): DMSO = 3:2 (v/v))?
Answer: 26.04

Question: And the “Log β3” value ([7]; KCl (0.1 M): DMSO = 3:2 (v/v))?
Answer: 34.84

Question: What about the “Log β1” value ([7]; KCl (0.1 M): DMSO = 9:1 (v/v)) of the same compound?
Answer: 14.75

Question: And the “pFe^3+” value [7, 14]?
Answer: 18.24

Question: What does the source list for `C#CCN(C)Cc1ccccc1` [Pargyline, reference compound]?
Answer: inhibition at 0.1 µM [1]: 50.3 ± 0.73%; inhibition at 1 µM [1]: 91.59 ± 0.09%; Distance to the target [6]: 2.89 ± 0.69 m; Entries to the target [6]: 3.85 ± 0.48

Question: For `CN1C(C(=O)Nc2ccccn2)=C(O)c2ccccc2S1(=O)=O` [Piroxicam], which Papp [10] is on record?
Answer: 2.05 ± 0.04 ×10⁻⁶ cm/s

Question: What about the Pe ([11]; footnote c) of the same compound?
Answer: 2.5^c 10^–6 cm/s

Question: And the “Prediction of CNS penetrability” value [4]?
Answer: CNS ± (CNS ±: 2.0 < Pe (10^–6 cm/s) < 4.0, uncertain BBB permeability)

Question: Which Papp at 6 h, 25 μg/mL [10] does the source give for `Nc1c2c(nc3ccccc13)CCCC2` [Tacrine] here?
Answer: 4.12 ± 0.45 ×10⁻⁶ cm/s

Question: And the Pe ([11]; footnote b)?
Answer: 5.3 ± 0.19^b 10^–6 cm/s

Question: Which results are given for `CN1[C@@H]2C[C@@H](OC(=O)[C@H](CO)c3ccccc3)C[C@H]1[C@@H]1O[C@@H]12` [scopolamine, Scopolamine hydrobromide]?
Answer: Distance to the target [6]: 7.74 ± 1.23 m; Entries to the target [6]: 2.00 ± 0.50; Latency to the target [6]: 41.40 ± 5.87 s

Question: With “Aβ1–42: Aβ peptide used to induce intracellular ROS in PC12 cells (model group) [reference compound]” as the compound, how does the “ROS %Gated (percentage of positive cells in the total number of cells)” value [3] read?
Answer: 44.58%

Question: And the “ROS Mean (average fluorescence intensity of all cells)” value [3]?
Answer: 131.56
